From US11414425B2 (priority 2018, dated 2022)

What follows are compounds tested against α5β3γ2 GABAA receptors (Homo sapiens, UniProt P18507+P31644) (assay: [3H]Ro15-1788 binding, membranes of Ltk cells stably expressing α5β3γ2 GABAA receptors). Details: not given.
α5β3γ2 GABAA receptors, sequence (P31644 32-462): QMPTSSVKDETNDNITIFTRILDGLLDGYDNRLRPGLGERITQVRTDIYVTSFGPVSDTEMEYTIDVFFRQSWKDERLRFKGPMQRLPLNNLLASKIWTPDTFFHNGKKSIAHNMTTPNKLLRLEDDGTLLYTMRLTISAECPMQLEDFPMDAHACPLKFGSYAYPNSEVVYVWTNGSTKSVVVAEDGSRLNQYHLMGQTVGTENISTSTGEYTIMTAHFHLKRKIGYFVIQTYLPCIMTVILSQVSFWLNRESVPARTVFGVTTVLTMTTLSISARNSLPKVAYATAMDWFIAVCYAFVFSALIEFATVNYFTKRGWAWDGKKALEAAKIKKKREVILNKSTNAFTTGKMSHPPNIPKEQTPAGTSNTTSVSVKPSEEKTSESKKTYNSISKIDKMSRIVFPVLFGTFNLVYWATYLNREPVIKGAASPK
α5β3γ2 GABAA receptors, sequence (P28472 26-473 partner): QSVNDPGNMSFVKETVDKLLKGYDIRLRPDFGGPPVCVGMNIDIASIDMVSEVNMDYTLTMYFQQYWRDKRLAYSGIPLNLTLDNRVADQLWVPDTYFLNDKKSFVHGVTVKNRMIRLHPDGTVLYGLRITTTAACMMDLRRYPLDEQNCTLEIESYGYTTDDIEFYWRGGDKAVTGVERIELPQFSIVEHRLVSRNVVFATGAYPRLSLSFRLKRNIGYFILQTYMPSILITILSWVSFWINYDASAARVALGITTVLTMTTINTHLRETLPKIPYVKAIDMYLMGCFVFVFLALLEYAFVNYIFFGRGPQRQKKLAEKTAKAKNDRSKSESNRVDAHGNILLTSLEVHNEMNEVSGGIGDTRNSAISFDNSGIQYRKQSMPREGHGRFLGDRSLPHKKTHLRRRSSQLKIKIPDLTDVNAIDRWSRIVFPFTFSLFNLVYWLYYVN
α5β3γ2 GABAA receptors, sequence (P18507 40-475): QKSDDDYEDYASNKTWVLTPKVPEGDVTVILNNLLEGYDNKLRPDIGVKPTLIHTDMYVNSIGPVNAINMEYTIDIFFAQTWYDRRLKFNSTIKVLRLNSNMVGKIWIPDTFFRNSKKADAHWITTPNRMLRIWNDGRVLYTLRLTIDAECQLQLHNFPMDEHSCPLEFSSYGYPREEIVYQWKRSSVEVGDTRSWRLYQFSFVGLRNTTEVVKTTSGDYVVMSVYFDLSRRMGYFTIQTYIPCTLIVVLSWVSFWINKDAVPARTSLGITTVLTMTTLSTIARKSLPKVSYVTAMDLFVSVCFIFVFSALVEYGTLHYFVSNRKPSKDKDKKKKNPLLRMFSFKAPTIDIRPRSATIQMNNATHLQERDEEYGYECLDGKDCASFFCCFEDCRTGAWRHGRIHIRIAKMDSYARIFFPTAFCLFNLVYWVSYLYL
`COc1ccc2c(c1)-n1nncc1Cc1c(C3=NCC(C4CCCCC4)O3)ncn1-2` (racemic) [Compound 690] gave a Ki of 100 to 1000 nM.
With `COc1ccc2c(c1)-n1nncc1Cc1c(C3=NCC(c4cccnc4)O3)ncn1-2` (racemic) [Compound 691] the Ki was under 100 nM.
`Cc1noc(-c2ncn3c2Cc2c(Cc4ccc(F)cc4)nnn2-c2cc(Cl)ccc2-3)n1` [Compound 479] showed a Ki of under 100 nM.
`CCCc1noc(-c2ncn3c2Cc2c(Cc4cccc(F)c4)nnn2-c2cc(Cl)ccc2-3)n1` [Compound 480] was tested, and the Ki was 100 to 1000 nM.
In the case of `Cc1noc(-c2ncn3c2Cc2c(Cc4ccc(F)cc4)nnn2-c2cc(C(F)(F)F)ccc2-3)n1` [Compound 484], the Ki is reported as under 100 nM.
`COc1ccc2c(c1)-n1nncc1Cc1c(-c3cn(-c4ccccc4)nn3)ncn1-2` [Compound 524] gave a Ki of 100 to 1000 nM.
With `COc1ccc(C#Cc2ncn3c2Cc2cnnn2-c2cc(Cl)ccc2-3)nc1` [Compound 532] the Ki was under 100 nM.
With `Clc1cccc(COCc2ncn3c2Cc2cnnn2-c2cc(Cl)ccc2-3)c1` [Compound 542] the Ki was 100 to 1000 nM.
Work on `Fc1cccc(COCc2ncn3c2Cc2cnnn2-c2cc(Cl)ccc2-3)c1` [Compound 543] yielded a Ki of 100 to 1000 nM.
Work on `Clc1ccc2c(c1)-n1nncc1Cc1c(COc3ccccc3)ncn1-2` [Compound 548] yielded a Ki of under 100 nM.
Work on `Fc1cccc(Cc2nnn3c2Cc2c(-c4nc(-c5ccccc5)no4)ncn2-c2ccc(C(F)(F)F)cc2-3)c1` [Compound 551] yielded a Ki of 100 to 1000 nM.

Same assay, conditions: ranges; inhibition of [3H]Ro15-1788 binding
`CCOC(=O)c1ncn2c1Cc1c(Cc3ccccc3Cl)nnn1-c1cc(C)ccc1-2` [Compound 54] was tested, and the Ki was under 100 nM.
`CC(C)OCc1nnc2n1Cc1c(-c3nc(-c4ccccc4)co3)ncn1-c1ccc(Cl)cc1-2` [Compound 276] showed a Ki of under 100 nM.
With `C#Cc1ccc2c(c1)-c1nnc(COC)n1Cc1c(C3=N[C@H](CC(C)C)CO3)ncn1-2` [Compound 280] the Ki was under 100 nM.
`COCc1nnc2n1Cc1c(C)ncn1-c1ccc(OC)cc1-2` [Compound 329] gave a Ki of over 1000 nM.
`C#Cc1ncn2c1Cn1c(COCC(F)(F)F)nnc1-c1cc(Cl)ccc1-2` [Compound 342] gave a Ki of under 100 nM.
Work on `COCc1nnc2n1Cc1c(-c3nc(C)no3)ncn1-c1ccc(-c3ccncc3)cc1-2` [Compound 468] yielded a Ki of over 1000 nM.
`COCc1nnc2n1Cc1c(-c3nc(C)no3)ncn1-c1cccc(OC)c1-2` [Compound 472] showed a Ki of 100 to 1000 nM.
With `Cc1noc(-c2ncn3c2Cc2c(Cc4cccc(F)c4)nnn2-c2cc(Cl)ccc2-3)n1` [Compound 477] the Ki was under 100 nM.
In the case of `Cc1noc(-c2ncn3c2Cc2c(Cc4ccc(F)cc4)nnn2-c2cc(OC(F)(F)F)ccc2-3)n1` [Compound 478], the Ki is reported as under 100 nM.
`CC(C)c1noc(-c2ncn3c2Cc2c(Cc4ccc(F)cc4)nnn2-c2cc(OC(F)(F)F)ccc2-3)n1` [Compound 483] gave a Ki of under 100 nM.
`CCCc1noc(-c2ncn3c2Cc2c(Cc4ccc(F)cc4)nnn2-c2cc(OC(F)(F)F)ccc2-3)n1` [Compound 486] gave a Ki of under 100 nM.
Work on `CC(C)c1noc(-c2ncn3c2Cc2c(Cc4cccc(F)c4)nnn2-c2cc(C(F)(F)F)ccc2-3)n1` [Compound 487] yielded a Ki of 100 to 1000 nM.
`CC(C)c1noc(-c2ncn3c2Cc2c(Cc4ccc(F)cc4)nnn2-c2cc(Cl)ccc2-3)n1` [Compound 489] gave a Ki of under 100 nM.
`CC(C)c1noc(-c2ncn3c2Cc2c(Cc4ccc(F)cc4)nnn2-c2cc(C(F)(F)F)ccc2-3)n1` [Compound 490] gave a Ki of under 100 nM.
Work on `Fc1ccc(Cc2nnn3c2Cc2c(-c4ncco4)ncn2-c2ccc(OC(F)(F)F)cc2-3)cc1` [Compound 495] yielded a Ki of 100 to 1000 nM.
For `Cc1nc(-c2ncn3c2Cc2c(Cc4ccc(F)cc4)nnn2-c2cc(Cl)ccc2-3)no1` [Compound 496], the Ki was under 100 nM.
`COc1ccc(C#Cc2ncn3c2Cc2cnnn2-c2cc(OC(F)(F)F)ccc2-3)cc1` [Compound 497] showed a Ki of under 100 nM.
Work on `FC(F)(F)c1ccc2c(c1)-n1nncc1Cc1c(C#Cc3ccc(Cl)cc3)ncn1-2` [Compound 502] yielded a Ki of under 100 nM.
`FC(F)(F)c1ccc2c(c1)-n1nncc1Cc1c(C3=N[C@H](c4ccccc4)CO3)ncn1-2` [Compound 506] gave a Ki of under 100 nM.
`CC1(C)OC(c2ncn3c2Cc2cnnn2-c2cc(OC(F)(F)F)ccc2-3)=N[C@@H]1c1ccccc1` [Compound 510] gave a Ki of under 100 nM.
`Fc1ccc(-n2cc(-c3ncn4c3Cc3cnnn3-c3cc(Cl)ccc3-4)nn2)cc1` [Compound 525] gave a Ki of under 100 nM.
`COc1ccc2c(c1)-n1nncc1Cc1c(C#Cc3ccc(C(F)(F)F)cn3)ncn1-2` [Compound 529] was tested, and the Ki was 100 to 1000 nM.
For `COc1ccc(C#Cc2ncn3c2Cc2cnnn2-c2cc(Cl)ccc2-3)cn1` [Compound 533], the Ki was under 100 nM.
For `Clc1ccc2c(c1)-c1nnc(Oc3ccccc3)n1Cc1c(C3=N[C@H](c4ccccc4)CO3)ncn1-2` [Compound 541], the Ki was under 100 nM.
Compound `Fc1ccc(OCc2ncn3c2Cc2cnnn2-c2cc(Cl)ccc2-3)cc1` [Compound 545] has a Ki of under 100 nM.
Work on `Fc1cccc(OCc2ncn3c2Cc2cnnn2-c2cc(Cl)ccc2-3)c1` [Compound 546] yielded a Ki of under 100 nM.
`Fc1ccccc1OCc1ncn2c1Cc1cnnn1-c1cc(Cl)ccc1-2` [Compound 547] was tested, and the Ki was 100 to 1000 nM.
In the case of `Fc1cccc(Cc2nnn3c2Cc2c(-c4nc(-c5ccccc5)no4)ncn2-c2ccc(Cl)cc2-3)c1` [Compound 550], the Ki is reported as 100 to 1000 nM.
`Fc1cccc(Cc2nnn3c2Cc2c(-c4nc(-c5ccccc5)no4)ncn2-c2ccc(OC(F)F)cc2-3)c1` [Compound 552] showed a Ki of 100 to 1000 nM.
Work on `COc1ccc(C#Cc2ncn3c2Cc2cnnn2-c2cc(C(F)(F)F)ccc2-3)nc1` [Compound 554] yielded a Ki of under 100 nM.
In the case of `COCc1nnc2n1Cc1c(C#Cc3ccc(C)nc3)ncn1-c1ccc(Cl)cc1-2` [Compound 556], the Ki is reported as 100 to 1000 nM.
Work on `COCc1nnc2n1Cc1c(C#Cc3ccc(C)cn3)ncn1-c1ccc(Cl)cc1-2` [Compound 557] yielded a Ki of under 100 nM.
`COCc1nnc2n1Cc1c(C#Cc3cc(C)ccn3)ncn1-c1ccc(Cl)cc1-2` [Compound 560] showed a Ki of under 100 nM.
Compound `COCc1nnc2n1Cc1c(C#Cc3cc(C)ccn3)ncn1-c1ccc(OC)cc1-2` [Compound 564] has a Ki of 100 to 1000 nM.
`COCc1nnc2n1Cc1c(C#Cc3ccc(O)nc3)ncn1-c1ccc(Cl)cc1-2` [Compound 568] was tested, and the Ki was under 100 nM.
`COCc1nnc2n1Cc1c(C#Cc3cncnc3)ncn1-c1ccc(Cl)cc1-2` [Compound 569] was tested, and the Ki was under 100 nM.
Work on `COCc1nnc2n1Cc1c(C#Cc3ncccn3)ncn1-c1ccc(Cl)cc1-2` [Compound 571] yielded a Ki of under 100 nM.
With `COCc1nnc2n1Cc1c(C#Cc3ccc(F)cn3)ncn1-c1ccc(Cl)cc1-2` [Compound 572] the Ki was under 100 nM.
Work on `COCc1nnc2n1Cc1c(C#Cc3cnc(C)nc3)ncn1-c1ccc(Cl)cc1-2` [Compound 573] yielded a Ki of 100 to 1000 nM.
Compound `COCc1nnc2n1Cc1c(C#Cc3cnc(OC)nc3)ncn1-c1ccc(Cl)cc1-2` [Compound 575] has a Ki of 100 to 1000 nM.
`COCc1nnc2n1Cc1c(C#Cc3ccc(C#N)cn3)ncn1-c1ccc(Cl)cc1-2` [Compound 577] was tested, and the Ki was 100 to 1000 nM.
In the case of `COCc1nnc2n1Cc1c(C#Cc3cnc(OC)cn3)ncn1-c1ccc(Cl)cc1-2` [Compound 578], the Ki is reported as under 100 nM.
Compound `COCc1nnc2n1Cc1c(C#Cc3ccc(Cl)cn3)ncn1-c1ccc(Cl)cc1-2` [Compound 579] has a Ki of under 100 nM.
In the case of `COCc1nnc2n1Cc1c(C#Cc3ccc(OC(F)(F)F)cn3)ncn1-c1ccc(Cl)cc1-2` [Compound 580], the Ki is reported as under 100 nM.
In the case of `COCc1nnc2n1Cc1c(C#Cc3ccc(OC)c(F)n3)ncn1-c1ccc(OC)cc1-2` [Compound 583], the Ki is reported as 100 to 1000 nM.
In the case of `COCc1nnc2n1Cc1c(C#Cc3cnc(OC)nc3)ncn1-c1ccc(OC)cc1-2` [Compound 584], the Ki is reported as 100 to 1000 nM.
Compound `COCc1nnc2n1Cc1c(C#Cc3ccc(F)cn3)ncn1-c1ccc(OC)cc1-2` [Compound 585] has a Ki of under 100 nM.
For `COCc1nnc2n1Cc1c(C#Cc3ccc(OC)c(C)n3)ncn1-c1ccc(OC)cc1-2` [Compound 586], the Ki was under 100 nM.
`COCc1nnc2n1Cc1c(C#Cc3ccc(C(F)(F)F)cn3)ncn1-c1ccc(OC)cc1-2` [Compound 587] was tested, and the Ki was under 100 nM.
Work on `COCc1nnc2n1Cc1c(C#Cc3cnc(C)cn3)ncn1-c1ccc(OC)cc1-2` [Compound 588] yielded a Ki of under 100 nM.
Work on `COCc1nnc2n1Cc1c(C#Cc3ccc(C#N)cn3)ncn1-c1ccc(OC)cc1-2` [Compound 590] yielded a Ki of 100 to 1000 nM.
`COCc1nnc2n1Cc1c(C#Cc3ccc(Cl)cn3)ncn1-c1ccc(OC)cc1-2` [Compound 591] gave a Ki of under 100 nM.
Work on `COCc1nnc2n1Cc1c(C#Cc3cncnc3)ncn1-c1ccc(OC)cc1-2` [Compound 592] yielded a Ki of under 100 nM.
`COCc1nnc2n1Cc1c(C#Cc3ncc(OC)cn3)ncn1-c1ccc(OC)cc1-2` [Compound 593] gave a Ki of under 100 nM.
For `COCc1nnc2n1Cc1c(C#Cc3cnc(C)nc3)ncn1-c1ccc(OC)cc1-2` [Compound 594], the Ki was 100 to 1000 nM.
`COCc1nnc2n1Cc1c(C#Cc3ncc(C)cn3)ncn1-c1ccc(OC)cc1-2` [Compound 595] showed a Ki of 100 to 1000 nM.
`COCc1nnc2n1Cc1c(C#Cc3cccc(C)n3)ncn1-c1ccc(OC)cc1-2` [Compound 598] showed a Ki of under 100 nM.
Compound `CCc1cncc(C#Cc2ncn3c2Cn2c(COC)nnc2-c2cc(OC)ccc2-3)c1` [Compound 599] has a Ki of under 100 nM.
In the case of `COCc1nnc2n1Cc1c(C#Cc3ncc(C)cn3)ncn1-c1ccc(Cl)cc1-2` [Compound 600], the Ki is reported as 100 to 1000 nM.
`COCc1nnc2n1Cc1c(C#Cc3ncc(C)s3)ncn1-c1ccc(OC)cc1-2` [Compound 601] showed a Ki of under 100 nM.
For `COCc1nnc2n1Cc1c(C#Cc3nc(C)cs3)ncn1-c1ccc(OC)cc1-2` [Compound 602], the Ki was under 100 nM.
`COCc1nnc2n1Cc1c(C#Cc3cccc(OC)n3)ncn1-c1ccc(Cl)cc1-2` [Compound 611] gave a Ki of under 100 nM.
Work on `COCc1nnc2n1Cc1c(C#Cc3cccc(OC)n3)ncn1-c1ccc(OC)cc1-2` [Compound 612] yielded a Ki of under 100 nM.
With `COCc1nnc2n1Cc1c(C#Cc3ccc(OC(F)(F)F)cn3)ncn1-c1ccc(OC)cc1-2` [Compound 613] the Ki was under 100 nM.
With `COCc1nnc2n1Cc1c(C#Cc3cccnc3OC)ncn1-c1ccc(Cl)cc1-2` [Compound 614] the Ki was under 100 nM.
Work on `COc1ccc2c(c1)-c1nnc(COC(F)F)n1Cc1c(C#Cc3ccc(OC)nc3)ncn1-2` [Compound 620] yielded a Ki of under 100 nM.
In the case of `COc1ccc2c(c1)-n1nncc1Cc1c(C#Cc3cnc(OC)s3)ncn1-2` [Compound 621], the Ki is reported as under 100 nM.
With `COc1ncc(C#Cc2ncn3c2Cc2cnnn2-c2cc(Cl)ccc2-3)s1` [Compound 622] the Ki was under 100 nM.
With `FC(F)Oc1ccc2c(c1)-n1nncc1Cc1c(C3=NC[C@H](c4ccccc4)O3)ncn1-2` [Compound 625] the Ki was 100 to 1000 nM.
